The values that follow come from patent publication US20170239318A1, “COMPOSITONS AND METHODS FOR CARTILAGE DEFECT REPAIR USING A RHAMM-MIMETIC PEPTIDE” (New York University, priority 2014, published 2017).

One test concerns SW982 synovial cell line. In words: mRNA levels of catabolic markers in IL-1β-treated SW982 synovial fibroblasts (real time PCR). The format is cell-based. As to conditions: 52 ng/ml peptide, 10 ng/ml IL-1β, 24 h. The procedure: FIG. 9: RHAMM-mimetic peptide decreased the mRNA levels of catabolic markers (Cox-2, IL-6, MMP-13) in the SW982 synovial cell line. SW982 cells after being serum-starved for 24 h were treated with RHAMM-mimetic peptide of SEQ ID NO:1 (Pep) at a concentration of 52 ng/ml for 24 h. mRNA levels of Cox-2, IL-6 and MMP-13 were determined by real time PCR using SYBR Green and normalized to the 18 S RNA. mRNA levels are expressed as relative units with the mRNA levels of untreated cells set as 1. Data are expressed as mean±SD from the results of three different cultures.
The synovial fibroblast cell line SW982 was used between passage 3 and passage 7 and cultured in DMEM containing 10% fetal calf serum until the cells reached confluence. Cells were then serum-starved for 24 h and then treated with 10 ng/ml recombinant human IL-1β and 52 ng/ml RHAMM-mimetic peptide for 48 h.
(§1) RT-PCR and Real-Time PCR Analysis. mRNA levels of catabolic markers (cyclooxygenase (Cox)-2, interleukin (IL)-6, inducible nitric oxide synthase (iNOS), matrix metalloproteinase (MMP)-13) and articular cartilage markers (aggrecan, type II collagen) were determined by real time PCR analysis as described by us previously (25, 26). Briefly, total RNA was isolated from chondrocyte cultures using the RNEASY minikit (Qiagen, Valencia, Calif.). One μg of total RNA was reverse transcribed by using an OMNISCRIPT RT kit (Qiagen). A 1:100 dilution of the resulting cDNA was used as the template to quantify the relative content of mRNA by real-time PCR (STEPONEPLUS™ System; Applied Biosystems, Foster City, Calif.) with the appropriate primers and SYBR Green. PCRs were performed with a SYBR Green PCR Master Mix kit (Applied Biosystems), at 95° C. for 10 min followed by 40 cycles at 95° C. for 15 s and 60° C. for 1 min, and 1 cycle at 95° C. for 15 s and 60° C. for 1 min. The 18 S RNA was amplified at the same time and used as an internal control. The cycle threshold values for 18 S RNA and the samples were measured and calculated by computer software.
In general terms: Real-time PCR tracks product formation cycle by cycle.

In a further test the target is T1, recombinant RHAMM (Homo sapiens, UniProt O75330).
T1 sequence (O75330 1-724): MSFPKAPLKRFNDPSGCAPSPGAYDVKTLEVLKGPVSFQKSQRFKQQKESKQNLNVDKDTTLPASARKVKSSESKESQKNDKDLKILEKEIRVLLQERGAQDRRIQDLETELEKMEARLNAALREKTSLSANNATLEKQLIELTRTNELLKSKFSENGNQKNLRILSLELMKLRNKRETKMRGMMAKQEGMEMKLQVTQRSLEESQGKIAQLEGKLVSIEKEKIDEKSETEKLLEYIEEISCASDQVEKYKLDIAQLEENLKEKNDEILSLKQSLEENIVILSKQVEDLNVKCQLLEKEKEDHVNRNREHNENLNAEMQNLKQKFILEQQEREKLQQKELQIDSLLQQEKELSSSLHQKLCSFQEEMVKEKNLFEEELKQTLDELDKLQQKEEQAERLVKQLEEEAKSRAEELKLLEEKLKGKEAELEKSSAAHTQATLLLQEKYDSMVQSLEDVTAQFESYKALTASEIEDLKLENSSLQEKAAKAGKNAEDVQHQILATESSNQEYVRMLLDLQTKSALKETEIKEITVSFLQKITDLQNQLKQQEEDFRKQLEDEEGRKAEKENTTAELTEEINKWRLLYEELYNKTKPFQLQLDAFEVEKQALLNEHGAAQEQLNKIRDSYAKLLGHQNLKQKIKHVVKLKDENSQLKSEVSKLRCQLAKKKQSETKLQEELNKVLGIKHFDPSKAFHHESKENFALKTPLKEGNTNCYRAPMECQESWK
The following applies: cited from earlier work.

A further test concerns skin wound repair. The following applies: cited from earlier work.
The test system of test [1] is IL-1β-treated human articular chondrocytes. In words: HA released into the medium of IL-1β-treated human articular chondrocytes (ELSA). As to conditions: 10 ng/ml IL-1β, 48 h. Format: cell-based. The procedure: FIG. 7: HA concentration in the medium of human articular chondrocytes is increased by IL-1β. A: RHAMM-mimetic peptide at a concentration of 0.026 μg/ml or 0.052 μg/ml (Pep0.026, Pep0.052) had no effect on the HA release into the medium of IL-1β-treated chondrocytes. […] Human articular chondrocytes were serum-starved for 24 h followed by treatment of these cells with 10 ng/ml IL-1β and various concentrations of the RHAMM-mimetic peptide for 48 h. HA released into the medium was measured by ELSA (ELISA-like) specific assay.
Chondrocyte Cultures. Human articular chondrocytes were isolated from articular cartilage samples obtained from patients (donor age range 48-67) undergoing total knee replacement surgery at NYU Hospital for Joint Diseases. Knee cartilage was harvested from regions with no macroscopically evident degeneration. The collection of tissue from patients undergoing knee replacement surgery was approved by the Institutional Regulatory Board (IRB) at NYU School of Medicine. Human chondrocytes were isolated from these cartilage samples and cultured as described by us previously (24). […]
Analysis of HA concentration in Chondrocyte Culture Medium. […] Conditioned media (approximately 1 ml each sample) from chondrocyte cultures were stored frozen at −20° C. until analyzed. […]

For test [2], the system named is RHAMM over-expressing LR21 cells. In words: in vitro random motility assay (scratch wound, HA fragment-stimulated cell migration). The format is cell-based. The following applies: 50 μg/mL peptide with 500 ng/mL 30-mer HA fragments, 24 hours; relative to PBS control, p<0.05. The procedure:
FIG. 2: Effect of peptide 15-1 on fibroblast migration, using an in vitro random motility assay. RHAMM over-expressing LR21 cells were plated on a fibronectin-coated surface in Dulbecco's Modified Eagles Medium (DMEM) with 10% fetal bovine serum (FBS). The following day medium was changed to DMEM with 1% FBS, 50 μg/ml peptide, 500 ng/ml 30-mer HA fragment. Random motility was measured microscopically. “Old P15-1” refers to a peptide batch that was used in previous experiments. As control (ctr), PBS was used instead of peptide.
Functional testing of peptide 15-1 using an in vitro random motility assay. The functional testing of peptide 15-1 using an in vitro random motility assay was done essentially as previously described (16). Briefly, RHAMM over-expressing LR21 cells were plated at 7×10^5 cells/well in fibronectin coated six-well plates using Dulbecco's modified Eagle's medium (DMEM) (Gibco BRL/Invitrogen, Carlsbad, Calif.) containing 10% fetal calf serum (FCS). Confluence of cell monolayers after 24 hours was between 80% and 90%. […] The number of cells that had migrated into the scratch wounds was quantified using NIH image processing software ImageJ as follows. A box adjusted to reach each opposing edge of the wound was placed over 3 randomly assigned parts of each scratch wound and the numbers of cells within the box were counted. […]

Test [3] relates to IL-1β-treated human articular chondrocytes. In words: mRNA levels of Cox-2 and type II collagen in IL-1β-treated human articular chondrocytes (real time PCR). Format: cell-based. As to conditions: peptide at concentrations up to 64 μg/ml (16, 32, 64), 10 ng/ml IL-1β, 24 h. As to the method: FIG. 8: RHAMM-mimetic peptide at concentrations (16, 32, 64 μg/ml) decreased the mRNA levels of Cox-2 (catabolic marker; A) and increased the mRNA levels of type II collagen (α1 (II), articular cartilage marker, B) in IL-1β-treated human articular chondrocytes. […] Data are expressed as mean±SD from three different cultures.
Chondrocyte Cultures. Human articular chondrocytes were isolated from articular cartilage samples obtained from patients (donor age range 48-67) undergoing total knee replacement surgery at NYU Hospital for Joint Diseases. Knee cartilage was harvested from regions with no macroscopically evident degeneration. […]
RT-PCR and Real-Time PCR Analysis. mRNA levels of catabolic markers (cyclooxygenase (Cox)-2, interleukin (IL)-6, inducible nitric oxide synthase (iNOS), matrix metalloproteinase (MMP)-13) and articular cartilage markers (aggrecan, type II collagen) were determined by real time PCR analysis as described by us previously (25, 26). […] A 1:100 dilution of the resulting cDNA was used as the template to quantify the relative content of mRNA by real-time PCR (STEPONEPLUS™ System; Applied Biosystems, Foster City, Calif.) with the appropriate primers and SYBR Green. […] The cycle threshold values for 18 S RNA and the samples were measured and calculated by computer software.

The test system of test [4] is full-thickness excisional rat wound. The following applies: cited from earlier work.
For test [5], the system named is serum-starved human articular chondrocytes. In words: mRNA levels of catabolic and articular cartilage markers in serum-starved human articular chondrocytes (real time PCR). Format: cell-based. The following applies: 48 h. The procedure: FIG. 6: RHAMM-mimetic peptide at concentrations up to 5 μg/ml decreased the mRNA levels of iNOS and MMP-13 (catabolic markers; A) and increased the mRNA levels of type II collagen (α1(II), articular cartilage marker, B) in serum-starved human articular chondrocytes. […] In addition, […] of peptide decreased the mRNA levels of type II collagen. Human articular chondrocytes after being serum-starved for 24 h were treated with RHAMM-mimetic peptide of SEQ ID NO:1 (Pep.) at various concentrations (0, 26, 52, 520, 1000, 5000 ng/ml) for 48 h. mRNA levels of iNOS, MMP-13, and type II collagen were determined by real time PCR using SYBR Green and normalized to the 18 S RNA. mRNA levels are expressed as relative units with the mRNA levels of untreated cells set as 1. Data are expressed as mean±SD from the results of three different cultures.
Chondrocyte Cultures. Human articular chondrocytes were isolated from articular cartilage samples obtained from patients (donor age range 48-67) undergoing total knee replacement surgery at NYU Hospital for Joint Diseases. Knee cartilage was harvested from regions with no macroscopically evident degeneration. The collection of tissue from patients undergoing knee replacement surgery was approved by the Institutional Regulatory Board (IRB) at NYU School of Medicine. Human chondrocytes were isolated from these cartilage samples and cultured as described by us previously (24). Before human chondrocyte cultures were treated with inflammatory stimulus (interleukin-1beta (IL-1β), chondrocyte cultures were switched to serum-free medium for 24 h followed by treatment with the inflammatory stimulus. Cells were treated with 10 ng/ml human recombinant IL-1β in phosphate-buffered saline (PBS)/0.1% BSA. In addition, serum-starved cells were treated with RHAMM-mimetic peptide at various concentrations, HMWHA (ORTHOVISC) at a concentration of 1000 μg/ml, and a combination at four different weight ratios (1:60, 1:30, 1:15, 1:8) of peptide and HMWHA. Cells were treated with these various agents for 24 or 48 h under serum-free conditions.
as §1

Where [6] appears, read: applied once to the wound, compared to scrambled, negative control peptide.
Setting [7] is: all concentrations tested (0.026, 0.052, 0.520, 1, 5, 800 μg/ml), vs untreated cells.

Like-named read-outs stand apart in the source and are kept apart here.

On to STMMSRSHKTRSHHV [RHAMM-mimetic peptide], for which, in the test on SW982 synovial cell line, the “Cox-2 mRNA levels” value is “markedly reduced”, the “IL-6 mRNA levels” value is reported as “markedly reduced” and the “MMP-13 mRNA levels” value is “markedly reduced”. The “binding of HA fragments to recombinant RHAMM” value with recombinant RHAMM is on record as “markedly reduced”. Moreover, in the test on skin wound repair (RHAMM−/− mice), the wound repair result is listed as “not”. Further, the wound repair entry in the test with skin wound repair (wild type mice) was “altered”. In addition, the “HA concentration in conditioned medium (increase caused by IL-1β)” value in test [1] (peptide 26 ng/ml or 52 ng/ml) is “little effect”. Also, in test [1] (peptide 17 μg/ml), the “HA concentration in conditioned medium (increase caused by IL-1β)” value is given as “significantly reduced”. The “reduction in fibroblast migration (number of cells migrated into the scratch wounds)” value in test [2] is “statistically significant”. In test [3], the “Cox-2 mRNA levels” value is listed as “decreased” and the “type II collagen mRNA level” value is recorded as “increased”. Moreover, the scarless healing result in test [4] (applied once to a full-thickness excisional rat wound) is “promoted a form of scarless healing”. Moreover, in test [4] (setting [6]), the blood vessel density result is “reduced”, the fibroblast number result is “reduced” and the macrophage number entry is recorded as “reduced”. Further, the “type of healing / fibrosis” value in test [4] (excisional skin wounds, rat model) is listed as “regenerative type of healing with reduced fibrosis”. In addition, the “decrease of mRNA levels of the catabolic markers (iNOS, MMP-13)” value in test [5] (800 μg/ml compared with lower concentrations of the peptide) is “not as effective”. Also, the “type II collagen mRNA level” value in test [5] (800 μg/ml, compared to untreated cells) is “decreased”. In test [5] (setting [7]), the “MMP-13 mRNA levels” value is reported as “decreased” and the “iNOS mRNA levels” value is reported as “decreased”. In test [5] (concentrations up to 5 μg/ml, vs untreated cells), the “type II collagen mRNA levels” value was “increased”.
